Converted amounts (≈) assume the structure as drawn.
Tests used:
[1] = test system: Micrococcus luteus; assay: Antibacterial activity against Micrococcus luteus ATCC4698 after 24 hrs by two fold serial dilution method; type: functional; details: ATCC4698, 24 h
[2] = test system: Salmonella typhi; assay: Antibacterial activity against Bacillus typhi after 24 hrs by two fold serial dilution method; type: functional, Salmonella enterica subsp. enterica serovar Typhi; details: Salmonella enterica
[3] = test system: Staphylococcus aureus; assay: Antibacterial activity against Staphylococcus aureus ATCC25923 after 24 hrs by two fold serial dilution method; type: functional; details: ATCC25923, 24 h
[4] = test system: Candida; assay: Antifungal activity against Candida mycoderma ATCC10231 after 24 hrs by two fold serial dilution method; type: functional; details: ATCC10231, 24 h
[5] = test system: Escherichia coli; assay: Antibacterial activity against Escherichia coli JM109 after 24 hrs by two fold serial dilution method; type: functional; details: JM109, 24 h
[6] = test system: Pseudomonas aeruginosa; assay: Antibacterial activity against Pseudomonas aeruginosa ATCC27853 after 24 hrs by two fold serial dilution method; type: functional; details: ATCC27853, 24 h
[7] = test system: Shigella dysenteriae; assay: Antibacterial activity against Shigella dysenteriae after 24 hrs by two fold serial dilution method; type: functional
[8] = test system: Cyberlindnera jadinii; assay: Antifungal activity against Candida utilis ATCC9950 after 24 hrs by two fold serial dilution method; type: functional; details: Williopsis jadinii, ATCC9950, 24 h
[9] = test system: Escherichia coli; assay: Antibacterial activity against Escherichia coli DH52 after 24 hrs by two fold serial dilution method; type: functional; details: DH52, 24 h
[10] = test system: Staphylococcus aureus; assay: Antibacterial activity against methicillin-resistant Staphylococcus aureus N315 after 24 hrs by two fold serial dilution method; type: functional; details: N315, 24 h
[11] = test system: Saccharomyces cerevisiae; assay: Antifungal activity against Beer yeast ATCC9763 after 24 hrs by two fold serial dilution method; type: functional; details: ATCC9763, 24 h
[12] = test system: Bacillus subtilis; assay: Antibacterial activity against Bacillus subtilis ATCC6633 after 24 hrs by two fold serial dilution method; type: functional; details: ATCC6633, 24 h
[13] = test system: Bacillus; assay: Antibacterial activity against Bacillus proteus ATCC13315 after 24 hrs by two fold serial dilution method; type: functional; details: ATCC13315, 24 h
[14] = test system: Aspergillus flavus; assay: Antifungal activity against Aspergillus flavus ATCC204304 after 24 hrs by two fold serial dilution method; type: functional; details: ATCC204304, 24 h
[15] = test system: Candida albicans; assay: Antifungal activity against Candida albicans ATCC76615 after 24 hrs by two fold serial dilution method; type: functional; details: ATCC76615, 24 h
[16] = test system: Escherichia coli; assay: Potency index, ratio of chloromycin MIC to compound MIC for Escherichia coli JM109; type: functional

Work on `CCCCc1nc(Cl)c(/C=N/N2C(=O)c3cccc4c(N5CCOCC5)ccc(c34)C2=O)n1Cc1ccc(Cl)c(Cl)c1` yielded an MIC [1] of 370 µM (≈ 231 µg/mL), an MIC [2] of 0.74 µM (≈ 0.462 µg/mL) and an MIC [3] of 740 µM (≈ 462 µg/mL). It also gave an MIC [4] of 370 µM (≈ 231 µg/mL), an MIC [5] of 370 µM (≈ 231 µg/mL) and an MIC [6] of 740 µM (≈ 462 µg/mL). It also gave an MIC [7] of 0.74 µM (≈ 0.462 µg/mL), an MIC [8] of 370 µM (≈ 231 µg/mL) and an MIC [9] of 180 µM (≈ 112 µg/mL). The MIC [10] was 370 µM (≈ 231 µg/mL), the MIC [11] was 180 µM (≈ 112 µg/mL) and the MIC [12] was 370 µM (≈ 231 µg/mL). For the same compound, the MIC [13] was 180 µM (≈ 112 µg/mL), the MIC [14] was 740 µM (≈ 462 µg/mL) and the MIC [15] was 370 µM (≈ 231 µg/mL).

Compound `CCCCc1nc(Cl)c(/C=N/N2C(=O)c3cccc4c(N5CCOCC5)ccc(c34)C2=O)n1Cc1ccc(Cl)cc1Cl` has an MIC [1] of 180 µM (≈ 112 µg/mL), an MIC [2] of 0.37 µM (≈ 0.231 µg/mL) and an MIC [3] of 180 µM (≈ 112 µg/mL). The MIC [4] was 370 µM (≈ 231 µg/mL), the MIC [5] was 370 µM (≈ 231 µg/mL) and the MIC [6] was 180 µM (≈ 112 µg/mL). For the same compound, the MIC [7] was 0.37 µM (≈ 0.231 µg/mL), the MIC [8] was 180 µM (≈ 112 µg/mL) and the MIC [9] was 740 µM (≈ 462 µg/mL). The MIC [10] was 370 µM (≈ 231 µg/mL), the MIC [11] was 370 µM (≈ 231 µg/mL) and the MIC [12] was 370 µM (≈ 231 µg/mL). For the same compound, the MIC [13] was 370 µM (≈ 231 µg/mL), the MIC [14] was 180 µM (≈ 112 µg/mL) and the MIC [15] was 370 µM (≈ 231 µg/mL).

Compound `CCCCc1nc(Cl)c(/C=N/N2C(=O)c3cccc4c(N5CCOCC5)ccc(c34)C2=O)n1Cc1ccc(OC)cc1` has an MIC [1] of 870 µM (≈ 510 µg/mL), an MIC [2] of 0.44 µM (≈ 0.258 µg/mL) and an MIC [3] of 440 µM (≈ 258 µg/mL). For the same compound, the MIC [4] was 870 µM (≈ 510 µg/mL), the MIC [5] was 870 µM (≈ 510 µg/mL) and the MIC [6] was 440 µM (≈ 258 µg/mL). The MIC [7] was 0.44 µM (≈ 0.258 µg/mL), the MIC [8] was 430 µM (≈ 252 µg/mL) and the MIC [9] was 440 µM (≈ 258 µg/mL). The MIC [10] was 440 µM (≈ 258 µg/mL), the MIC [11] was 220 µM (≈ 129 µg/mL) and the MIC [12] was 440 µM (≈ 258 µg/mL). For the same compound, the MIC [13] was 220 µM (≈ 129 µg/mL), the MIC [14] was 430 µM (≈ 252 µg/mL) and the MIC [15] was 430 µM (≈ 252 µg/mL).

In the case of `OC(Cn1cncn1)(Cn1cncn1)c1ccc(F)cc1F` [FLUCONAZOLE], the MIC [4] is reported as 10 µM (≈ 3.06 µg/mL), the MIC [8] is reported as 30 µM (≈ 9.19 µg/mL) and the MIC [11] is reported as 50 µM (≈ 15.3 µg/mL). For the same compound, the MIC [14] was 840 µM (≈ 257 µg/mL) and the MIC [15] was 3 µM (≈ 0.919 µg/mL).

Work on `CCn1cc(C(=O)O)c(=O)c2cc(F)c(N3CCNCC3)cc21` [NORFLOXACIN] yielded an MIC [1] of 6 µM (≈ 1.92 µg/mL), an MIC [3] of 6 µM (≈ 1.92 µg/mL) and an MIC [5] of 3 µM (≈ 0.958 µg/mL). The MIC [6] was 50 µM (≈ 16 µg/mL), the MIC [7] was 0.05 µM (≈ 0.016 µg/mL) and the MIC [9] was 3 µM (≈ 0.958 µg/mL). For the same compound, the MIC [10] was 20 µM (≈ 6.39 µg/mL), the MIC [12] was 10 µM (≈ 3.19 µg/mL) and the MIC [13] was 20 µM (≈ 6.39 µg/mL).

Compound `CCCCc1nc(Cl)c(/C=N/N2C(=O)c3cccc4c(N5CCOCC5)ccc(c34)C2=O)n1Cc1ccc(Cl)cc1` has an MIC [1] of 430 µM (≈ 254 µg/mL), an MIC [2] of 0.43 µM (≈ 0.254 µg/mL) and an MIC [3] of 870 µM (≈ 514 µg/mL). It also gave an MIC [4] of 430 µM (≈ 254 µg/mL), an MIC [5] of 430 µM (≈ 254 µg/mL) and an MIC [6] of 870 µM (≈ 514 µg/mL). For the same compound, the MIC [7] was 0.87 µM (≈ 0.514 µg/mL), the MIC [8] was 220 µM (≈ 130 µg/mL) and the MIC [9] was 430 µM (≈ 254 µg/mL). For the same compound, the MIC [10] was 430 µM (≈ 254 µg/mL), the MIC [11] was 220 µM (≈ 130 µg/mL) and the MIC [12] was 430 µM (≈ 254 µg/mL). It also gave an MIC [13] of 430 µM (≈ 254 µg/mL), an MIC [14] of 870 µM (≈ 514 µg/mL) and an MIC [15] of 430 µM (≈ 254 µg/mL).

For `CCCCCCCCCCCCn1c(CCCC)nc(Cl)c1/C=N/N1C(=O)c2cccc3c(N4CCOCC4)ccc(c23)C1=O`, the MIC [1] was 400 µM (≈ 254 µg/mL), the MIC [2] was 0.8 µM (≈ 0.507 µg/mL) and the MIC [3] was 400 µM (≈ 254 µg/mL). The Ratio [16] was 10, the MIC [4] was 810 µM (≈ 514 µg/mL) and the MIC [5] was 10 µM (≈ 6.34 µg/mL). For the same compound, the MIC [6] was 800 µM (≈ 507 µg/mL), the MIC [7] was 0.8 µM (≈ 0.507 µg/mL) and the MIC [8] was 10 µM (≈ 6.34 µg/mL). It also gave an MIC [9] of 800 µM (≈ 507 µg/mL), an MIC [10] of 200 µM (≈ 127 µg/mL) and an MIC [11] of 400 µM (≈ 254 µg/mL). For the same compound, the MIC [12] was 800 µM (≈ 507 µg/mL), the MIC [13] was 800 µM (≈ 507 µg/mL) and the MIC [14] was 810 µM (≈ 514 µg/mL). The MIC [15] was 810 µM (≈ 514 µg/mL).

`CCCCc1nc(Cl)c(/C=N/N2C(=O)c3cccc4c(N5CCCC5)ccc(c34)C2=O)[nH]1` was tested, and the MIC [1] was 280 µM (≈ 126 µg/mL), the MIC [2] was 0.57 µM (≈ 0.256 µg/mL) and the MIC [3] was 570 µM (≈ 256 µg/mL). For the same compound, the MIC [4] was 140 µM (≈ 63 µg/mL), the MIC [5] was 280 µM (≈ 126 µg/mL) and the MIC [6] was 570 µM (≈ 256 µg/mL). For the same compound, the MIC [7] was 0.57 µM (≈ 0.256 µg/mL), the MIC [8] was 280 µM (≈ 126 µg/mL) and the MIC [9] was 280 µM (≈ 126 µg/mL). It also gave an MIC [10] of 280 µM (≈ 126 µg/mL), an MIC [11] of 570 µM (≈ 256 µg/mL) and an MIC [12] of 570 µM (≈ 256 µg/mL). The MIC [13] was 570 µM (≈ 256 µg/mL), the MIC [14] was 570 µM (≈ 256 µg/mL) and the MIC [15] was 140 µM (≈ 63 µg/mL).

For `CCCCc1nc(Cl)c(/C=N/N2C(=O)c3cccc4c(N5CCOCC5)ccc(c34)C2=O)[nH]1`, the MIC [1] was 270 µM (≈ 126 µg/mL), the MIC [2] was 0.27 µM (≈ 0.126 µg/mL) and the MIC [3] was 270 µM (≈ 126 µg/mL). For the same compound, the MIC [4] was 140 µM (≈ 65.2 µg/mL), the MIC [5] was 270 µM (≈ 126 µg/mL) and the MIC [6] was 70 µM (≈ 32.6 µg/mL). The MIC [7] was 0.07 µM (≈ 0.0326 µg/mL), the MIC [8] was 550 µM (≈ 256 µg/mL) and the MIC [9] was 270 µM (≈ 126 µg/mL). For the same compound, the MIC [10] was 70 µM (≈ 32.6 µg/mL), the MIC [11] was 270 µM (≈ 126 µg/mL) and the MIC [12] was 550 µM (≈ 256 µg/mL). The MIC [13] was 270 µM (≈ 126 µg/mL), the MIC [14] was 550 µM (≈ 256 µg/mL) and the MIC [15] was 270 µM (≈ 126 µg/mL).

With `CCCCCn1c(CCCC)nc(Cl)c1/C=N/N1C(=O)c2cccc3c(N4CCOCC4)ccc(c23)C1=O` the MIC [1] was 240 µM (≈ 129 µg/mL), the MIC [2] was 0.24 µM (≈ 0.129 µg/mL) and the MIC [3] was 240 µM (≈ 129 µg/mL). For the same compound, the MIC [4] was 480 µM (≈ 257 µg/mL), the MIC [5] was 480 µM (≈ 257 µg/mL) and the MIC [6] was 960 µM (≈ 515 µg/mL). For the same compound, the MIC [7] was 0.48 µM (≈ 0.257 µg/mL), the MIC [8] was 7 µM (≈ 3.75 µg/mL) and the MIC [9] was 480 µM (≈ 257 µg/mL). The MIC [10] was 480 µM (≈ 257 µg/mL), the MIC [11] was 480 µM (≈ 257 µg/mL) and the MIC [12] was 240 µM (≈ 129 µg/mL). For the same compound, the MIC [13] was 480 µM (≈ 257 µg/mL), the MIC [14] was 480 µM (≈ 257 µg/mL) and the MIC [15] was 480 µM (≈ 257 µg/mL).

— ChEMBL document CHEMBL3817825, “Synthesis and biological evaluation of Schiff base-linked imidazolyl naphthalimides as novel potential anti-MRSA agents” (2016)
